Data from patent US20250115613A1, “DIARYL COMPOUND AS TUBULIN/SRC DUAL TARGET INHIBITOR” (Wuhan Humanwell Innovative Drug Research and Development …, priority 2022, published 2025).
Converted amounts (≈) assume the structure as drawn. Read-outs that look alike come from different tables or passages of the source.

Columns and labels:
[1] = Pharmacokinetic test in mice; assay type: in vivo; conditions: mouse, plasma
Procedure: For the pharmacokinetic test in mice, 3 male ICR mice, 20 to 25 g, were used, fasted overnight, and administered by tail vein injection (1 mg/kg or 5 mg/kg). Blood was collected before the administration, and at 15 min, 30 min, 1 hour, 2 hours, 4 hours, 8 hours, and 24 hours after the administration. Another 3 mice were taken and administered by oral gavage (5 mg/kg), and blood was collected before the administration, and at 15 min, 30 min, 1 hour, 2 hours, 4 hours, 8 hours, and 24 hours after the administration. Blood samples were centrifuged at 6800 g at 2 to 8° C. for 6 min, and plasma was collected and stored at −80° C. The plasma at each time point was taken and added with an acetonitrile solution containing internal standard in 3 to 5 times the amount. The mixture was vortexed and mixed for 1 min, and centrifuged at 13,000 rpm at 4° C. for 10 min. The supernatant was collected, added with water in 3 times the amount, and mixed. An appropriate amount of the mixture was taken for LC-MS/MS analysis. The main pharmacokinetic parameters were analyzed using WinNonlin 7.0 software with non-compartmental model.

A-431 cells = assay: Inhibition of A-431 cell proliferation; assay type: cell-based; conditions: Homo sapiens, 96 h, incubated 4 days
Procedure: (§1) Human cutaneous squamous cell carcinoma cell A-431 (ATCC, CRL-1555) and actinic keratosis patient-derived cell HT 297.T (ATCC, CRL-7782) proliferation assays were used to detect the inhibitory effect of small molecular compounds on cell proliferation.
(§2) A-431 cells and HT 297.T cells were cultured in DMEM medium containing 10% fetal bovine serum and grown at 37° C. in a 5% CO2 incubator. Cells on logarithmic phase were seeded into a 96-well cell culture plate at 1000 cells/well, 100 μL per well, and then cultured overnight at 37° C. in a 5% CO2 incubator. The next day, 100 μL of gradient-diluted 2× test compound solution was added to each well, with DMSO serving as a positive control, and 10 μM staurosporine (Aladdin, S102392) was set as a negative control group. After the addition of the compounds, the culture plate was incubated for another 4 days at 37° C. in a 5% CO2 incubator. After incubation, the Steady-Glo® luciferase assay system (Promega, G9243) was used according to the supplier's instructions to measure the fluorescence signal value on the Envision 2104 Multilabel Reader. The inhibition rate was calculated by the following formula, then the curve was plotted with the Log value of the inhibitor concentration as the X-axis and the inhibition rate as the Y-axis, and the IC50 was calculated using Graphpad 8.0.
(§3) Inhibition %=(positive control group signal−test well signal)/(positive control group signal−negative control group signal)*100

[2] = Human liver microsome stability test; assay type: in vitro ADME; conditions: human liver microsomes (Corning), NADPH, 37° C.
Procedure: The human liver microsome stability test was performed by incubating the compound and human liver microsomes in vitro. First, the compound to be tested was prepared as a 10 mM stock solution in DMSO solvent, and then the compound was diluted to 0.5 mM with acetonitrile. Human liver microsomes (Corning) were diluted with PBS into a microsome/buffer solution, and the solution was used to dilute 0.5 mM compound into a working solution, in which the concentration of the compound was 1.5 μM, and the concentration of human liver microsomes was 0.75 mg/mL. A deep-well plate was taken, 30 μL of the working solution was added per well, and then 15 μL of pre-heated 6 mM NADPH solution was added thereto to initiate a reaction, and the reaction was incubated at 37° C. At 0 min, 5 min, 15 min, 30 min, and 45 min of the incubation, 135 μL of acetonitrile was added to the corresponding wells to terminate the reaction. After the reaction was terminated with acetonitrile at the last time point of 45 min, the deep-well plate was vortexed and shaken for 10 min (600 rpm), and then centrifuged for 15 min. After centrifugation, the supernatant was collected, and added with purified water in a ratio of 1:1 to perform LC-MS/MS detection. A ratio of a peak area of compound to a peak area of internal standard at each time point was obtained, and the peak area ratios of the compound at 5 min, 15 min, 30 min, and 45 min were compared with the peak area ratio at 0 min to calculate the remaining percentage of the compound at each time point. T1/2 was calculated by using Graphpad 5 software.

HT 297.T cells = assay: Inhibition of HT 297.T cell proliferation; assay type: cell-based; conditions: Homo sapiens, 96 h, incubated 4 days
Procedure: as §1, §2, §3

[3] = Thermodynamic solubility test; assay type: physicochemical; conditions: thermodynamic from solid
Procedure: Phosphate buffer saline (PBS) with a pH of 7.4, FeSSIF solution with a pH of 6.5, and FaSSGF solution with a pH of 1.6 were prepared. The compound was accurately weighed and added to prepared phosphate buffer saline with a pH of 7.4, FeSSIF solution with a pH of 6.5, and FaSSGF solution with a pH of 1.6 to prepare into a solution with a concentration of 4 mg/mL. The solution was shaken at a speed of 1000 rpm for 1 hour, and then incubated overnight at room temperature. The incubated solution was centrifuged at 12,000 rpm for 10 minutes to remove undissolved particles, and the supernatant was transferred to a new centrifuge tube. After the supernatant was appropriately diluted, an acetonitrile solution containing internal standard was added, and a standard curve prepared with the same matrix was used for quantification.

tubulin monomer = assay: Inhibition test of tubulin monomer polymerization (Tubulin polymerization assay kit); assay type: biochemical; conditions: maximum fluorescence signal of polymerization curve; 5 μL of 12.5 μM compound solution; 37° C.; higher value = lower inhibitory efficiency
Procedure: Tubulin polymerization assay kit (cytoskeleton, Cat. #BK011P) was used to conduct the compound inhibition test of tubulin monomer polymerization.
Before the test, the 96-well plate (Corning Costar, Cat. #3686) supplied with the kit was first placed in a microplate reader (MD, SpectraMax M5) and heated to 37° C., maintained for 10 minutes. The 96-well plate was then removed, and 5 μL of 12.5 μM compound solution or blank solution was added thereto. The 96-well plate was then placed back into the microplate reader and incubated at 37° C. for 1 minute to heat the compound solution to 37° C. The 96-well plate was removed and 50 μL of reaction mixture prepared according to the supplier's instructions was quickly added to each well, completing the sample addition within 1 minute to avoid the formation of bubbles. The 96-well plate was then immediately placed back into the microplate reader, shaken for 5 seconds, and using the Kinetic mode, continuous detection was carried out at 37° C. for 30 to 60 minutes under the conditions of excitation light at 360 nm and emission light at 420 nm, with detection every 30 seconds. Taking the detection time as the X-axis and the fluorescence signal value as the Y-axis, the tubulin monomer polymerization curve was obtained. As shown in FIG. 1 and Table 1, the larger the Vmax value and the higher the maximum fluorescence signal value of the polymerization curve, the lower the inhibitory efficiency of the compound.

[4] = male ICR mice, intravenous injection 1 mg/kg
[5] = male ICR mice, intravenous injection 5 mg/kg
[6] = male, ICR, mice, oral gavage 5 mg/kg
[7] = FeSSIF solution, FeSSIF pH 6.5, incubated overnight at room temperature, read-out: Solubility FeSSIF (pH 6.5)
[8] = phosphate buffer saline (PBS), aqueous buffer, PBS pH 7.4, incubated overnight at room temperature, read-out: Solubility PBS (pH 7.4)

Structure (SMILES): O=C(Cc1ccc(-c2ccc(OCCN3C[C@H]4COC[C@H]4C3)cc2F)cn1)NCc1ccccc1 [Compound I-1, N-benzyl-2-(5-(2-fluoro-4-(2-((3aR,6aS)-tetrahydro-1H-furo[3,4-c]pyrrol-5(3H)-yl)ethoxy)phenyl)pyridin-2-yl)acetamide]
- AUC(0-t) [1, 4]: 299 ng·h/mL
- clearance [1, 4]: 47.7 mL/min/kg
- IC50 (A-431 cells): 11.6 nM

Structure (SMILES): O=C(Cc1ccc(-c2ccc(OCCN3CCS(=O)(=O)CC3)cc2)cn1)NCc1ccccc1 [Compound I-3, N-benzyl-2-(5-(4-(2-(1,1-dioxidothiomorpholino)ethoxy)phenyl)pyridin-2-yl)acetamide]
- IC50 (A-431 cells): 14.3 nM

Structure (SMILES): O=C(Cc1ccc(-c2ccc(OCCN3CC4(COC4)C3)cc2F)cn1)NCc1ccccc1 [Compound I-4, 2-(5-(4-(2-(2-oxa-6-azaspiro[3.3]heptan-6-yl)ethoxy)-2-fluorophenyl)pyridin-2-yl)-N-benzylacetamide]
- half-life at 1 μM [2]: 47.5 min
- IC50 (A-431 cells): 8.67 nM
- IC50 (HT 297.T cells): 21.9 nM

Structure (SMILES): Cc1cc(OCCN2CC3(COC3)C2)ccc1-c1ccc(CC(=O)NCc2ccccc2)nc1 [Compound I-5, 2-(5-(4-(2-(2-oxa-6-azaspiro[3.3]heptan-6-yl)ethoxy)-2-methylphenyl)pyridin-2-yl)-N-benzylacetamide]
- AUC(0-t) [1, 5]: 2630 ng·h/mL
- clearance [1, 5]: 32.7 mL/min/kg
- IC50 (A-431 cells): 16.3 nM

Structure (SMILES): O=C(Cc1ccc(-c2ccc(OCCN3CC4(C3)CS(=O)(=O)C4)cc2)cn1)NCc1ccccc1 [Compound I-18, N-benzyl-2-(5-(4-(2-(2,2-dioxido-2-thia-6-azaspiro[3.3]heptan-6-yl)ethoxy)phenyl)pyridin-2-yl)acetamide]
- IC50 (A-431 cells): 22.3 nM

Structure (SMILES): C[C@H]1COCCN1CCOc1ccc(-c2ccc(CC(=O)NCc3ccccc3)nc2)c(F)c1 [Compound I-24A, (S)—N-benzyl-2-(5-(2-fluoro-4-(2-(3-methylmorpholino)ethoxy)phenyl)pyridin-2-yl)acetamide]
- AUC(0-t) [1, 6]: 1090 ng·h/mL
- Cmax [1, 6]: 1190 ng/mL
- AUC(0-t) [1, 5]: 2520 ng·h/mL
- clearance [1, 5]: 33.2 mL/min/kg
- IC50 (A-431 cells): 6.74 nM
- IC50 (HT 297.T cells): 8.13 nM

Structure (SMILES): C[C@@H]1COCCN1CCOc1ccc(-c2ccc(CC(=O)NCc3ccccc3)nc2)c(F)c1 [Compound I-24B, (R)—N-benzyl-2-(5-(2-fluoro-4-(2-(3-methylmorpholino)ethoxy)phenyl)pyridin-2-yl)acetamide]
- AUC(0-t) [1, 6]: 1420 ng·h/mL
- Cmax [1, 6]: 1230 ng/mL
- AUC(0-t) [1, 5]: 2780 ng·h/mL
- clearance [1, 5]: 30.7 mL/min/kg
- half-life at 1 μM [2]: 13.9 min
- IC50 (A-431 cells): 6.47 nM
- solubility [3, 7]: 69.8 µg/mL (≈ 150 µM)
- solubility [3, 8]: 11.3 µg/mL (≈ 24.4 µM)
- IC50 (HT 297.T cells): 8.51 nM
- Maximum signal value (tubulin monomer): 266

Structure (SMILES): O=C(Cc1ccc(-c2ccc(OCCNC3CN(C(=O)CC4CC4)C3)cc2)cn1)NCc1ccccc1 [Compound I-26, N-benzyl-2-(5-(4-(2-((1-(2-cyclopropylacetyl)azetidin-3-yl)amino)ethoxy)phenyl)pyridin-2-yl)acetamide]
- half-life at 1 μM [2]: 42.8 min
- IC50 (A-431 cells): 13.7 nM
- solubility [3, 7]: 480 µg/mL (≈ 962 µM)
- solubility [3, 8]: 22.4 µg/mL (≈ 45 µM)
- Maximum signal value (tubulin monomer): 408

Structure (SMILES): N#Cc1cc(OCCN2CCOCC2)ccc1-c1ccc(CC(=O)NCc2ccccc2)nc1 [Compound I-27, N-benzyl-2-(5-(2-cyano-4-(2-morpholinoethoxy)phenyl)pyridin-2-yl)acetamide]
- IC50 (A-431 cells): 3.1 nM
- solubility [3, 7]: 833 µg/mL (≈ 1830 µM)
- solubility [3, 8]: 85.7 µg/mL (≈ 188 µM)
- Maximum signal value (tubulin monomer): 0

Structure (SMILES): Cc1cc(OCCN2C[C@H]3COC[C@H]3C2)cc(C)c1-c1ccc(CC(=O)NCc2ccccc2)nc1 [Compound I-29, N-benzyl-2-(5-(2,6-dimethyl-4-(2-((3aR,6aS)-tetrahydro-1H-furo[3,4-c]pyrrol-5(3H)-yl)ethoxy)phenyl)pyridin-2-yl)acetamide]
- IC50 (A-431 cells): 45.1 nM

Structure (SMILES): O=C(Cc1ccc(-c2ccc(OCCN3C[C@H]4COC[C@H]4C3)cc2Cl)cn1)NCc1ccccc1 [Compound I-30, N-benzyl-2-(5-(2-chloro-4-(2-((3aR,6aS)-tetrahydro-1H-furo[3,4-c]pyrrol-5(3H)-yl)ethoxy)phenyl)pyridin-2-yl)acetamide]
- AUC(0-t) [1, 6]: 508 ng·h/mL
- Cmax [1, 6]: 364 ng/mL
- AUC(0-t) [1, 5]: 852 ng·h/mL
- clearance [1, 5]: 97.2 mL/min/kg
- half-life at 1 μM [2]: 10.7 min
- IC50 (A-431 cells): 9.12 nM

Structure (SMILES): C[C@@H]1COCCN1CCOc1ccc(-c2ccc(CC(=O)NCc3ccccc3F)nc2)c(F)c1 [Compound I-31, (R)-2-(5-(2-fluoro-4-(2-(3-methylmorpholino)ethoxy)phenyl)pyridin-2-yl)-N-(2-fluorobenzyl)acetamide]
- IC50 (A-431 cells): 10.9 nM

Structure (SMILES): C[C@H]1COCCN1CCOc1ccc(-c2ccc(CC(=O)NCc3ccccc3F)nc2)c(F)c1 [Compound I-32, (S)-2-(5-(2-fluoro-4-(2-(3-methylmorpholino)ethoxy)phenyl)pyridin-2-yl)-N-(2-fluorobenzyl)acetamide]
- IC50 (A-431 cells): 9.22 nM

Structure (SMILES): Cc1cc(OCCN2C[C@H]3COC[C@H]3C2)ccc1-c1ccc(CC(=O)NCc2ccccc2F)nc1 [Compound I-33, N-(2-fluorobenzyl)-2-(5-(2-methyl-4-(2-((3aR,6aS)-tetrahydro-1H-furo[3,4-c]pyrrol-5(3H)-yl)ethoxy)phenyl)pyridin-2-yl)acetamide]
- IC50 (A-431 cells): 49.4 nM

Structure (SMILES): O=C(Cc1ccc(-c2ccc(OCCN3C[C@H]4COC[C@H]4C3)cc2Cl)cn1)NCc1ccccc1F [Compound I-34, 2-(5-(2-chloro-4-(2-((3aR,6aS)-tetrahydro-1H-furo[3,4-c]pyrrol-5(3H)-yl)ethoxy)phenyl)pyridin-2-yl)-N-(2-fluorobenzyl)acetamide]
- IC50 (A-431 cells): 14.8 nM

Structure (SMILES): O=C(Cc1ccc(-c2ccc(OCCN3CCOCC3)cc2)cn1)NCc1ccccc1 [Control compound I, Tirbanibulin, reference compound]
- AUC(0-t) [1, 5]: 5250 ng·h/mL
- clearance [1, 5]: 15.8 mL/min/kg
